The target of experiment [1] is T1, HIV integrase (recombinant integrase) (Human immunodeficiency virus type 1 group M subtype B, UniProt P04585).
T1 construct: HIV Integrase Assay: Strand Transfer Catalyzed by Recombinant Integrase
Put plainly: HIV integrase assay: strand transfer catalyzed by recombinant integrase. It is filed as biochemical. The method, then:
HIV Integrase Assay: Strand Transfer Catalyzed by Recombinant Integrase
Assays for the strand transfer activity of integrase were conducted in accordance with the method described in Example 193 of WO 02/30930 for recombinant integrase.
Further description on conducting the assay using preassembled complexes is found in Wolfe, A. L. et al., J. Virol. 1996, 70: 1424-1432, Hazuda et al., J. Virol. 1997, 71: 7005-7011; Hazuda et al., Drug Design and Discovery 1997, 15: 17-24; and Hazuda et al., Science 2000, 287: 646-650.

The test system of experiment [2] is HIV mutants that are resistant to other integrase inhibitors. Put plainly: Antiviral activity against HIV mutants resistant to other integrase inhibitors. It is filed as cell-based.
The next experiment has as its system HIV. Kind of experiment: Antiviral potency in the presence of human serum proteins. The format is cell-based. The settings on record: relative to closely related N-benzyl-8-hydroxy-1,6-naphthyridine carboxamide integrase inhibitors without ortho polar substituent.

Molecules are shown by their SMILES. A value given as a limit tells only on which side of the number the result lay.

Consider `CNC(=O)c1cc(F)ccc1CNC(=O)c1nc(N2CCCCS2(=O)=O)c2cccnc2c1O` [Example 3, Sodium 5-(1,1-dioxido-1,2-thiazinan-2-yl)-7-[({4-fluoro-2-[(methylamino)carbonyl]-benzyl}amino)carbonyl]-1,6-naphthyridin-8-olate], for which the IC50 – broadly, the concentration at which inhibition is half-maximal – in experiment [1] is below 500 nM.

Turning to `CNC(=O)c1cc(F)ccc1CNC(=O)c1nc(N2CCCCS2(=O)=O)c2cccnc2c1O` [Compound A, N-{4-fluoro-2-[(methylamino)carbonyl]benzyl}-5-(1,1-dioxido-1,2-thiazinan-2-yl)-8-hydroxy-1,6-naphthyridine-7-carboxamide], the “antiviral activity against several HIV mutants resistant to other integrase inhibitors” value in experiment [2] was “retention of significant antiviral activity”. For the same compound, the “antiviral potency in the presence of human serum proteins” value in the experiment on HIV is on record as “improved”.
